Data as given in US6737383B1, “Herbicidal oxadiazolidines” (priority 1999, dated 2004).

Tests used:
purple nutsedge = assay: Test B pre/postemergence purple nutsedge; assay type: in vivo, Cyperus rotundus
Outline: (§1)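 Herbicidal effect was estimated by eye on a ten-point control scale after plants spent twelve to sixteen days in a greenhouse following soil or foliar treatment. Foliar sprays targeted plants at one to four leaves; all doses were formulated in a non-phytotoxic solvent with surfactant.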

pigweed = assay: Test B pre/postemergence pigweed; assay type: in vivo, Amaranthus retroflexus
Outline: as §1

cocklebur = assay: Test B pre/postemergence cocklebur; assay type: in vivo, Xanthium strumarium
Outline: as §1

crabgrass = assay: Test B pre/postemergence crabgrass; assay type: in vivo, Digitaria sanguinalis
Outline: as §1

sugar beet = assay: Test B pre/postemergence sugar beet; assay type: in vivo, Beta vulgaris
Outline: as §1

velvetleaf = assay: Test B pre/postemergence velvetleaf; assay type: in vivo, Abutilon theophrasti
Outline: as §1

surinam grass = assay: Test B pre/postemergence surinam grass; assay type: in vivo, Brachiaria decumbens
Outline: as §1

blackgrass = assay: Test B pre/postemergence blackgrass; assay type: in vivo, Alopecurus myosuroides
Outline: as §1

rape = assay: Test B pre/postemergence rape; assay type: in vivo, Brassica napus
Outline: as §1

wheat = assay: Test B pre/postemergence wheat; assay type: in vivo, Triticum aestivum
Outline: as §1

morningglory = assay: Test B pre/postemergence morningglory; assay type: in vivo, Ipomoea hederacea
Outline: as §1

bamyardgrass = assay: Test B flood test barnyardgrass; assay type: in vivo, Echinochloa crus-galli
Outline: (§2)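 Flood test on plants grown to the 2-leaf stage; treated plants kept in greenhouse twelve to sixteen days, then visually rated against controls on a 0 (no effect) to 10 (complete control) scale.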

rice = assay: Test B flood test rice; assay type: in vivo, Oryza sativa
Outline: as §2

giant foxtail = assay: Test B pre/postemergence giant foxtail; assay type: in vivo, Setaria faberii
Outline: as §1

duck salad = assay: Test B flood test duck salad; assay type: in vivo, Heteranthera limosa
Outline: as §2

wild oat = assay: Test B pre/postemergence wild oat; assay type: in vivo, Avena fatua
Outline: as §1

soybean = assay: Test B pre/postemergence soybean; assay type: in vivo, Glycine max
Outline: as §1

smallflower flatsedge = assay: Test B flood test smallflower flatsedge; assay type: in vivo, Cyperus difformis
Outline: as §2

corn = assay: Test B pre/postemergence corn; assay type: in vivo, Zea mays
Outline: as §1

[1] = Postemergence, Rate 31 g/ha, visual rating, scale 0 to 10 (0 no effect, 10 complete control)
[2] = Postemergence, Rate 125 g/ha, scale of 0 to 10 where 0 is no effect and 10 is complete control
[3] = Preemergence, Rate 62 g/ha, scale of 0 to 10 where 0 is no effect and 10 is complete control
[4] = Preemergence, Rate 125 g/ha, scale of 0 to 10 where 0 is no effect and 10 is complete control
[5] = Postemergence, Rate 62 g/ha, scale 0 to 10, 0 is no effect, 10 is complete control
[6] = Postemergence, Rate 250 g/ha, scale of 0 to 10, 0 is no effect, 10 is complete control
[7] = Preemergence, Rate 250 g/ha, scale 0 to 10 (0 no effect, 10 complete control)
[8] = Preemergence, Rate 31 g/ha, visual rating, scale 0 to 10 (0 no effect, 10 complete control)
[9] = Rate 31 g/ha, Pre-emergence section (flood test species), scale 0 to 10
[10] = Rate 62 g/ha, flood test species, Pre-emergence, visual evaluation after twelve to sixteen days
[11] = Rate 125 g/ha, under heading Pre-emergence, flood test species, visual evaluation after twelve to sixteen days
[12] = Rate 250 g/ha, Pre-emergence (flood test species), scale 0 to 10, 0 is no effect, 10 is complete control

CCOP(=O)(OCC)C(C)n1c(=O)on(C(=O)N(c2ccc(Cl)cc2)C(C)C)c1=O (centres unmarked) [Compound 644]
6: Plant response rating, Giant foxtail (giant foxtail; [7])
3: Redroot pigweed plant response rating (pigweed; [2]) | Redroot pigweed plant response rating (pigweed; [6]) | Plant response rating, Crabgrass (crabgrass; [7]) | Plant response rating, Morningglory (morningglory; [7])
0: Nutsedge plant response rating (purple nutsedge; [1]) | Nutsedge plant response rating (purple nutsedge; [2]) | Nutsedge plant response rating (purple nutsedge; [3]) | Nutsedge plant response rating (purple nutsedge; [4]) | Redroot pigweed plant response rating (pigweed; [3]) | Redroot pigweed plant response rating (pigweed; [4]) | Plant response rating, Redroot pigweed (pigweed; [7]) | Cocklebur plant response rating (cocklebur; [1]) | Plant response rating, Cocklebur (cocklebur; [5]) | Cocklebur plant response rating (cocklebur; [2]) | Cocklebur plant response rating (cocklebur; [6]) | Cocklebur plant response rating (cocklebur; [8]) | Cocklebur plant response rating (cocklebur; [3]) | Cocklebur plant response rating (cocklebur; [4]) | Plant response rating, Cocklebur (cocklebur; [7]) | Crabgrass plant response rating (crabgrass; [1]) | Plant response rating, Crabgrass (crabgrass; [5]) | Crabgrass plant response rating (crabgrass; [2]) | Crabgrass plant response rating (crabgrass; [6]) | Sugarbeets plant response rating (sugar beet; [1]) | Plant response rating, Sugarbeets (sugar beet; [5]) | Sugarbeets plant response rating (sugar beet; [2]) | Sugarbeets plant response rating (sugar beet; [6]) | Sugarbeets plant response rating (sugar beet; [3]) | Sugarbeets plant response rating (sugar beet; [4]) | Plant response rating, Sugarbeets (sugar beet; [7]) | Velvetleaf plant response rating (velvetleaf; [1]) | Plant response rating, Velvetleaf (velvetleaf; [5]) | Velvetleaf plant response rating (velvetleaf; [2]) | Velvetleaf plant response rating (velvetleaf; [6]) | Velvetleaf plant response rating (velvetleaf; [3]) | Velvetleaf plant response rating (velvetleaf; [4]) | Plant response rating, Velvetleaf (velvetleaf; [7]) | B. signalgrass plant response rating (surinam grass; [1]) | Plant response rating, B. signalgrass (surinam grass; [5]) | Plant response rating, B. signalgrass (surinam grass; [2]) | B. signalgrass plant response rating (surinam grass; [6]) | B. signalgrass plant response rating (surinam grass; [8]) | B. signalgrass plant response rating (surinam grass; [3]) | B. signalgrass plant response rating (surinam grass; [4]) | Blackgrass plant response rating (blackgrass; [1]) | Plant response rating, Blackgrass (blackgrass; [5]) | Blackgrass plant response rating (blackgrass; [2]) | Blackgrass plant response rating (blackgrass; [6]) | Blackgrass plant response rating (blackgrass; [8]) | Blackgrass plant response rating (blackgrass; [3]) | Blackgrass plant response rating (blackgrass; [4]) | Plant response rating, Blackgrass (blackgrass; [7]) | Rape plant response rating (rape; [1]) | Plant response rating, Rape (rape; [5]) | Rape plant response rating (rape; [2]) | Rape plant response rating (rape; [6]) | Rape plant response rating (rape; [3]) | Rape plant response rating (rape; [4]) | Wheat plant response rating (wheat; [1]) | Plant response rating, Wheat (wheat; [5]) | Wheat plant response rating (wheat; [2]) | Wheat plant response rating (wheat; [6]) | Wheat plant response rating (wheat; [3]) | Wheat plant response rating (wheat; [4]) | Plant response rating, Wheat (wheat; [7]) | Morningglory plant response rating (morningglory; [1]) | Plant response rating, Morningglory (morningglory; [5]) | Morningglory plant response rating (morningglory; [2]) | Morningglory plant response rating (morningglory; [6]) | Morningglory plant response rating (morningglory; [3]) | Morningglory plant response rating (morningglory; [4]) | Barnyardgrass plant response rating (bamyardgrass; [9]) | Plant response rating, Barnyardgrass (0 to 10 scale, 0 is no effect, 10 is complete control) (bamyardgrass; [10]) | Barnyardgrass plant response rating (0 to 10 scale, 0 is no effect, 10 is complete control) (bamyardgrass; [11]) | Barnyardgrass plant response rating (bamyardgrass; [12]) | Rice plant response rating (rice; [9]) | Plant response rating, Rice (0 to 10 scale, 0 is no effect, 10 is complete control) (rice; [10]) | Rice plant response rating (0 to 10 scale, 0 is no effect, 10 is complete control) (rice; [11]) | Rice plant response rating (rice; [12]) | Giant foxtail plant response rating (giant foxtail; [1]) | Plant response rating, Giant foxtail (giant foxtail; [5]) | Giant foxtail plant response rating (giant foxtail; [2]) | Giant foxtail plant response rating (giant foxtail; [6]) | Giant foxtail plant response rating (giant foxtail; [8]) | Giant foxtail plant response rating (giant foxtail; [3]) | Ducksalad plant response rating (duck salad; [9]) | Plant response rating, Ducksalad (0 to 10 scale, 0 is no effect, 10 is complete control) (duck salad; [10]) | Ducksalad plant response rating (0 to 10 scale, 0 is no effect, 10 is complete control) (duck salad; [11]) | Ducksalad plant response rating (duck salad; [12]) | Wild oats plant response rating (wild oat; [1]) | Plant response rating, Wild oats (wild oat; [5]) | Wild oats plant response rating (wild oat; [2]) | Wild oats plant response rating (wild oat; [6]) | Wild oats plant response rating (wild oat; [3]) | Wild oats plant response rating (wild oat; [4]) | Plant response rating, Wild oats (wild oat; [7]) | Soybean plant response rating (soybean; [1]) | Plant response rating, Soybean (soybean; [5]) | Soybean plant response rating (soybean; [2]) | Soybean plant response rating (soybean; [3]) | Soybean plant response rating (soybean; [4]) | Plant response rating, Soybean (soybean; [7]) | S. Flatsedge plant response rating (smallflower flatsedge; [9]) | Plant response rating, S. Flatsedge (0 to 10 scale, 0 is no effect, 10 is complete control) (smallflower flatsedge; [10]) | S. Flatsedge plant response rating (0 to 10 scale, 0 is no effect, 10 is complete control) (smallflower flatsedge; [11]) | S. Flatsedge plant response rating (smallflower flatsedge; [12]) | Corn plant response rating (corn; [1]) | Plant response rating, Corn (corn; [5]) | Corn plant response rating (corn; [2]) | Corn plant response rating (corn; [6]) | Corn plant response rating (corn; [8]) | Corn plant response rating (corn; [3]) | Corn plant response rating (corn; [4]) | Plant response rating, Corn (corn; [7])
2: Redroot pigweed plant response rating (pigweed; [1]) | Plant response rating, Redroot pigweed (pigweed; [5]) | Crabgrass plant response rating (crabgrass; [8]) | Crabgrass plant response rating (crabgrass; [3]) | Plant response rating, B. signalgrass (surinam grass; [7]) | Plant response rating, Rape (rape; [7]) | Giant foxtail plant response rating (giant foxtail; [4])
